Reference: US20250296959A1, “B7-H3 TARGETING PEPTIDES AND CONSTRUCTS THEREOF” (Mariana Oncology Inc., priority 2024, published 2025)
Read-outs that look alike come from different tables or passages of the source. One block for each molecule: values may come before it. Starred links: 1 amine or outer side, 2 acyl side, 3 side chain; linkers in the order of their positions; H or OH if unused. Positions of bridges follow the written chain, without caps; N, C: chain ends. Non-standard residues stand in square brackets, D forms with d. Residues, ends and D or L forms follow the SMILES beside them. Groups on a side chain read outwards from the residue. *: point of attachment. X2 = O=C(O)CN1CCN(CC(=O)O)CCN(CC(=O)NCCOCCOCCOCCOCC(=O)*)CCN(CC(=O)O)CC1; Ala(piperidin-4-yl) = O=C([C@H](CC1CCN([*:3])CC1)N[*:1])[*:2]; DOTA = O=C(O)CN1CCN(CC(=O)O)CCN(CC(=O)*)CCN(CC(=O)O)CC1; Trp(5-F) = N[C@@H](Cc1c[nH]c2ccc(F)cc12)C(=O)O; hCba = O=C([C@H](CCC1CCC1)N[*:1])[*:2]; 1Nal = N[C@@H](Cc1cccc2ccccc12)C(=O)O; Ala(4-THP) = N[C@@H](CC1CCOCC1)C(=O)O; Pip(CH2CO2H)Ala = not defined here; Val(3-OH) = CC(C)(O)[C@H](N)C(=O)O; hCha = N[C@@H](CCC1CCCCC1)C(=O)O; 4Pal = N[C@@H](Cc1ccncc1)C(=O)O; Cha = N[C@@H](CC1CCCCC1)C(=O)O; Chg = N[C@H](C(=O)O)C1CCCCC1; PEG4 = NCCOCCOCCOCCOCCC(=O)O; Tle = CC(C)(C)[C@H](N)C(=O)O; hLeu = CC(C)CC[C@H](N)C(=O)O; Dab = NCC[C@H](N)C(=O)O; Ms = CS(=O)(=O)*; Sar = CNCC(=O)O

Assays:
Calu-6 cell line [1] = experiment: Cell associated (bound) fraction of [177Lu]Lu-labeled peptide in Calu-6 cells; format: cell-based, Human; details: 1 hour, 37° C.
Outline: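 Detached B7-H3-expressing human lung cancer cells at 5 million/mL were exposed for 1 hour at 37 °C to 0.8 μCi of the 177Lu-labelled peptide, which was formulated in 1% PBSA after labelling at 80 °C, pH ~5. Supernatant and two cold washes counted as unbound, and resuspended cells gamma-counted as the cell-associated fraction.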

Calu-6 cell line [2] = experiment: Net internalization of [177Lu]Lu-labeled peptide in Calu-6 cells; format: cell-based, Human; details: 1 hour, 37° C., glycine pH 2.5 acid wash
Outline: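 Calu-6 cells, human non-engineered lung cancer expressing B7-H3, resuspended in 1% PBSA at 5 million cells/mL and incubated with the 177Lu-labeled conjugate (labeled at 80 °C, pH ~5, RP-HPLC checked). Gamma counting of the bound fraction, then of the pellet after two glycine pH 2.5 acid strips and NaOH lysis, gives internalized activity.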

human 4lg B7-H3 = target: T1, human 4lg B7-H3 (Homo sapiens, UniProt Q5ZPR3); experiment: Affinity determination by surface plasmon resonance (SPR) to 4Ig B7-H3; details: 4Ig B7-H3
T1 sequence (Q5ZPR3 29-534): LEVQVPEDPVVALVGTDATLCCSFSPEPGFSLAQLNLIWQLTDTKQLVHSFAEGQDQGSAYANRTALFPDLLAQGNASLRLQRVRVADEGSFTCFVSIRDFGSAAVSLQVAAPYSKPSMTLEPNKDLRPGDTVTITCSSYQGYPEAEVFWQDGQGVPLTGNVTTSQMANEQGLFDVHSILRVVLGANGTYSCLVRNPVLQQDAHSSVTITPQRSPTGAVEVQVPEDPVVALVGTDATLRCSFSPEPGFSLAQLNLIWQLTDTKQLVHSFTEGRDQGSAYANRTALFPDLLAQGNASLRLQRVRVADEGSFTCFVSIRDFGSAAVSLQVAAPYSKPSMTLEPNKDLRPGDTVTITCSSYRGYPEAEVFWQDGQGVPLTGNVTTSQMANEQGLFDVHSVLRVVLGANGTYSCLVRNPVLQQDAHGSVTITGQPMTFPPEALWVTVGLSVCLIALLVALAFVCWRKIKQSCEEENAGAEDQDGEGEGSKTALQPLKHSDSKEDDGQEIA

[3] = target: B7-H3 on Calu-6 cells (human) (UniProt Q5ZPR3); experiment: 177Lu-labelled peptide on Calu-6 cells, % cell associated fraction; B = 25<%<=50
[4] = read-out: SPR KD—25° C., 25° C. flow cell temperature
[5] = read-out: SPR KD—37° C., 37° C. flow cell temperature

Molecule: CC(=O)N[C@@H](CCC(C)C)C(=O)N[C@@H](Cc1ccc(O)cc1)C(=O)N[C@H]1CSSC[C@@H](C(=O)N[C@@H](Cc2c[nH]c3ccccc23)C(=O)N[C@@H](Cc2ccccc2)C(=O)N[C@H](C(=O)N[C@H](CCCCNC(=O)CN2CCN(CC(=O)O)CCN(CC(=O)O)CCN(CC(=O)O)CC2)C(N)=O)[C@@H](C)O)NC(=O)[C@H](Cc2ccc(O)cc2)NC(=O)[C@H](C(C)C)NC(=O)[C@H](CC(=O)O)NC(=O)[C@H](Cc2ccc(O)cc2)NC(=O)[C@H](CCCCN)NC(=O)CNC(=O)[C@H](C(C)(C)C)NC1=O [compound 72, Ac-hLeu-Y-C-Tbg-G-K-Y-D-V-Y-C-W-F-Thr-dLys(DOTA)-CONH2] (Ac-[hLeu]YC[Tle]GKYDVYCWFT[dK](DOTA)-NH2; disulfide 3-11)
% cell associated fraction (Calu-6 cell line [1]): C (%>50)
% net internalization (Calu-6 cell line [2]): A (%≤25)
Kd (human 4lg B7-H3; [4]): < 1 nM

Molecule: CC(C)CC[C@H](NS(C)(=O)=O)C(=O)N[C@@H](Cc1ccc(O)cc1)C(=O)N[C@H]1CSSC[C@@H](C(=O)N[C@@H](Cc2c[nH]c3ccc(F)cc23)C(=O)N[C@@H](Cc2ccccc2)C(=O)N[C@H](C(=O)N[C@H](CCCCNC(=O)CN2CCN(CC(=O)O)CCN(CC(=O)O)CCN(CC(=O)O)CC2)C(=O)O)C(C)(C)O)NC(=O)[C@H](Cc2ccc(O)cc2)NC(=O)[C@H](C(C)C)NC(=O)[C@H](CC(=O)O)NC(=O)[C@H](CC2CCOCC2)NC(=O)[C@H](CC2CCNCC2)NC(=O)CNC(=O)[C@H](C(C)(C)C)NC1=O [Cpd #437, MeSO2-hLeu-Y-C-Tbg-G-PipAla-ThpA-D-V-Y-C-5FW-F-hydroxyVal-dLys(DOTA)-COOH] (Ms-[hLeu]YC[Tle]G[Ala(piperidin-4-yl)][Ala(4-THP)]DVYC[Trp(5-F)]F[Val(3-OH)][dK](DOTA)-OH; disulfide 3-11)
% cell associated fraction (Calu-6 cell line [1]): B (25<%≤50)
% net internalization (Calu-6 cell line [2]): A (%≤25)
Kd (human 4lg B7-H3; [5]): < 1 nM

Molecule: CC(=O)N[C@@H](CCC(C)C)C(=O)N[C@@H](Cc1ccc(O)cc1)C(=O)N[C@H]1CSSC[C@@H](C(=O)N[C@@H](Cc2c[nH]c3ccc(F)cc23)C(=O)N[C@@H](Cc2ccccc2)C(=O)N[C@H](C(=O)N[C@H](CCCCNC(=O)CN2CCN(CC(=O)O)CCN(CC(=O)O)CCN(CC(=O)O)CC2)C(N)=O)C(C)(C)O)NC(=O)[C@H](Cc2ccc(O)cc2)NC(=O)[C@H](C(C)C)NC(=O)[C@H](CC(=O)O)NC(=O)[C@H](CC2CCCCC2)NC(=O)[C@H](CC2CCNCC2)NC(=O)CNC(=O)[C@H](C(C)C)NC1=O [compound 227, Ac-hLeu-Y-C-V-G-PipAla-CHA-D-V-Y-C-5FW-F-hydroxyVal-dLys(DOTA)-CONH2] (Ac-[hLeu]YCVG[Ala(piperidin-4-yl)][Cha]DVYC[Trp(5-F)]F[Val(3-OH)][dK](DOTA)-NH2; disulfide 3-11)
% cell associated fraction (Calu-6 cell line [1]): C (%>50)
% net internalization (Calu-6 cell line [2]): B (25<%≤50)
Kd (human 4lg B7-H3; [4]): < 1 nM

Molecule: CC(=O)N[C@@H](CCC(C)C)C(=O)N[C@@H](Cc1ccc(O)cc1)C(=O)N[C@H]1CSSC[C@@H](C(=O)N[C@@H](Cc2c[nH]c3ccc(F)cc23)C(=O)N[C@@H](Cc2ccccc2)C(=O)N[C@H](C(=O)N[C@H](C)C(N)=O)C(C)(C)O)NC(=O)[C@H](Cc2ccc(O)cc2)NC(=O)[C@H](C(C)C)NC(=O)[C@H](CC(=O)O)NC(=O)[C@H](CC2CCN(C(=O)CCOCCOCCOCCOCCNC(=O)CN3CCN(CC(=O)O)CCN(CC(=O)O)CCN(CC(=O)O)CC3)CC2)NC(=O)[C@H](CCCCN)NC(=O)CNC(=O)[C@H](C(C)(C)C)NC1=O [compound 385, Ac-hLeu-Y-C-Tbg-G-K-Pip(PEG4-DOTA)Ala-D-V-Y-C-5FW-F-hydroxyVal-dAla-CONH2] (Ac-[hLeu]YC[Tle]GK[Ala(piperidin-4-yl)]([PEG4-DOTA])DVYC[Trp(5-F)]F[Val(3-OH)][dA]-NH2; disulfide 3-11)
% cell associated fraction (Calu-6 cell line [1]): C (%>50)
% net internalization (Calu-6 cell line [2]): B (25<%≤50)
Kd (human 4lg B7-H3; [5]): < 1 nM

Molecule: CC(=O)N[C@@H](CCC(C)C)C(=O)N[C@@H](Cc1ccc(O)cc1)C(=O)N[C@H]1CSSC[C@@H](C(=O)N[C@@H](Cc2cccc3ccccc23)C(=O)N[C@@H](Cc2ccccc2)C(=O)N[C@H](C(=O)N[C@H](CCCCNC(=O)CN2CCN(CC(=O)O)CCN(CC(=O)O)CCN(CC(=O)O)CC2)C(N)=O)[C@@H](C)O)NC(=O)[C@H](Cc2ccc(O)cc2)NC(=O)[C@H](C(C)C)NC(=O)[C@H](CC(=O)O)NC(=O)[C@H](Cc2ccc(O)cc2)NC(=O)[C@H](CCCCN)NC(=O)CNC(=O)[C@H](C(C)(C)C)NC1=O [compound 179, Ac-hLeu-Y-C-Tbg-G-K-Y-D-V-Y-C-1Nal-F-Thr-dLys(DOTA)-CONH2] (Ac-[hLeu]YC[Tle]GKYDVYC[1Nal]FT[dK](DOTA)-NH2; disulfide 3-11)
% cell associated fraction (Calu-6 cell line [1]): B (25<%≤50)
% net internalization (Calu-6 cell line [2]): A (%≤25)
Kd (human 4lg B7-H3; [4]): < 1 nM

Molecule: CC(=O)N[C@@H](CCC(C)C)C(=O)N[C@@H](Cc1ccc(O)cc1)C(=O)N[C@H]1CSSC[C@@H](C(=O)N[C@@H](Cc2cccc3ccccc23)C(=O)N[C@@H](Cc2ccccc2)C(=O)N2CCC[C@H]2C(N)=O)NC(=O)[C@H](Cc2ccc(O)cc2)NC(=O)[C@H](C(C)C)NC(=O)[C@H](CC(=O)O)NC(=O)[C@H](Cc2ccncc2)NC(=O)[C@H](CCCCNC(=O)COCCOCCOCCOCCNC(=O)CN2CCN(CC(=O)O)CCN(CC(=O)O)CCN(CC(=O)O)CC2)NC(=O)CNC(=O)[C@H](C(C)(C)C)NC1=O [compound 256, Ac-hLeu-Y-C-Tbg-G-Lys(PEG4-DOTA)-4PyA-D-V-Y-C-1Nal-F-Pro-CONH2] (Ac-[hLeu]YC[Tle]GK(X2)[4Pal]DVYC[1Nal]FP-NH2; disulfide 3-11)
% cell associated fraction (Calu-6 cell line [1]): A (%≤25)
% net internalization (Calu-6 cell line [2]): A (%≤25)
Kd (human 4lg B7-H3; SPR KD—25° C., 25° C. flow cell temperature): 1 to 10 nM

Molecule: CC(=O)N[C@@H](CCC(C)C)C(=O)N[C@@H](Cc1ccc(O)cc1)C(=O)N[C@H]1CSSC[C@@H](C(=O)N[C@@H](Cc2c[nH]c3ccc(F)cc23)C(=O)N[C@@H](Cc2ccccc2)C(=O)N[C@H](C(=O)N[C@H](CCCCNC(=O)CN2CCN(CC(=O)O)CCN(CC(=O)O)CCN(CC(=O)O)CC2)C(N)=O)[C@@H](C)O)NC(=O)[C@H](Cc2ccc(O)cc2)NC(=O)[C@H](C2CCCCC2)NC(=O)[C@H](CC(=O)O)NC(=O)[C@H](Cc2ccncc2)NC(=O)[C@H](CCCCN)NC(=O)CNC(=O)[C@H](C(C)C)NC1=O [compound 190, Ac-hLeu-Y-C-V-G-K-4PyA-D-ChG-Y-C-5FW-F-Thr-dLys(DOTA)-CONH2] (Ac-[hLeu]YCVGK[4Pal]D[Chg]YC[Trp(5-F)]FT[dK](DOTA)-NH2; disulfide 3-11)
% cell associated fraction (Calu-6 cell line [1]): C (%>50)
% net internalization (Calu-6 cell line [2]): B (25<%≤50)
Kd (human 4lg B7-H3; [4]): < 1 nM

% cell associated fraction [3]: 25 to 50%
Molecule: Ac-[hCha]YC[Tle]GK[Ala(4-THP)]DVYC[Trp(5-F)]F[Val(3-OH)][dK](DOTA)-OH (disulfide 3-11 (inferred)) [Cpd 368]

% cell associated fraction [3]: 25 to 50%
Molecule: Ac-[hCba]YC[Tle]GK[Ala(4-THP)]DVYC[Trp(5-F)]F[Val(3-OH)][dK](DOTA)-OH (disulfide 3-11 (inferred)) [Cpd 398]

% cell associated fraction [3]: 25 to 50%
Molecule: Ac-[hLeu]YC[Tle]GK[Ala(4-THP)]DVYC[Trp(5-F)]F[Val(3-OH)][dK](DOTA)-NH2 (disulfide 3-11 (inferred)) [Cpd 366]

% cell associated fraction [3]: 25 to 50%
B1: Cpd 318 (peptide)
peptide: Ac-[hLeu]YCIG[Pip(CH2CO2H)Ala][Ala(4-THP)]DVYC[Trp(5-F)]F[Val(3-OH)][dK](DOTA)-OH
modifications: disulfide 3-11 (inferred); reading uncertain; also: printed as Ac-hLeu-Y-C-Ile-G-[Pip(CH2CO2H)Ala]-ThpA-D-V-Y-C-5FW-F-hydroxyVal-dLys(DOTA)-COOH; disulfide

% cell associated fraction [3]: 25 to 50%
Molecule: Ac-[hLeu]YC[Tle][Sar]K[Ala(4-THP)]DVYC[Trp(5-F)]F[Val(3-OH)][dK](DOTA)-OH (disulfide 3-11 (inferred)) [Cpd 348]

% cell associated fraction [3]: 25 to 50%
Molecule: Ac-[hLeu]YC[Tle]G[Dab][Ala(4-THP)]DVYC[Trp(5-F)]F[Val(3-OH)][dK](DOTA)-OH (disulfide 3-11 (inferred)) [Cpd 371]
